Paper PMC3931418 (Nature, 2014)

What was measured:
[1] = test system: δ-OR sodium-anchored residue mutants; assay: cAMP assay; assay type: cell-based, human
δ-OR [2] = details: cited from earlier work
[3] = test system: δ-OR sodium-anchored residue mutants; assay: δ-OR β-arrestin recruitment assay; details: sodium-anchored residue mutants compared to WT
WT δ-OR = WT δ-OR (Homo sapiens, UniProt P41143); assay: δ-OR β-arrestin recruitment assay
δ-OR [4] = molecular target: δ-OR (Homo sapiens, UniProt P41143); assay: cAMP assay; assay type: cell-based; details: receptors transfected with 15 µg DNA
δ-OR N131A (HEK293) = δ-OR N131A (HEK293) (Homo sapiens, UniProt P41143, N131A); assay type: binding
δ-OR D95N (HEK293) = δ-OR D95N (HEK293) (Homo sapiens, UniProt P41143, D95N)
δ-OR D95A (HEK293) = δ-OR D95A (HEK293) (Homo sapiens, UniProt P41143, D95A)
δ-OR WT (HEK293) = δ-OR WT (HEK293) (Homo sapiens, UniProt P41143); assay type: binding
[5] = cooperativity of sodium with DADLE

Chain of δ-OR WT (HEK293) (P41143 whole entry): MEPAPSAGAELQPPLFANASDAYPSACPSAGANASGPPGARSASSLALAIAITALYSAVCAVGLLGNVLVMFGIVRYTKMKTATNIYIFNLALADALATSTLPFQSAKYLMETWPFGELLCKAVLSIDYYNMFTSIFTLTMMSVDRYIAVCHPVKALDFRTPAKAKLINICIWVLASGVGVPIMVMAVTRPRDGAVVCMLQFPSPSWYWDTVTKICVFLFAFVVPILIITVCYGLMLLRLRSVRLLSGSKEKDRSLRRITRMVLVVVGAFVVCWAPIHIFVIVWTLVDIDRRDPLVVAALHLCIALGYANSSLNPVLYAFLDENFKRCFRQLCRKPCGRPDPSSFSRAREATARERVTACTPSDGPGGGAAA
Chain of WT δ-OR (P41143 whole entry): as above
Chain of δ-OR N131A (HEK293) (P41143 whole entry N131A): as the sequence (P41143 whole entry) above, with N131A counted along it
Chain of δ-OR D95A (HEK293) (P41143 whole entry D95A): as the sequence (P41143 whole entry) above, with D95A counted along it
Chain of δ-OR D95N (HEK293) (P41143 whole entry D95N): as the sequence (P41143 whole entry) above, with D95N counted along it
Chain of δ-OR (Homo sapiens, UniProt P41143) (P41143 whole entry): as the sequence (P41143 whole entry) above

## C=CCN1C[C@H](C)N([C@H](c2ccc(C(=O)N(CC)CC)cc2)c2cccc(O)c2)C[C@H]1C
[1]; sodium-anchored residue mutants compared to WT
  G-protein signaling: low to moderate reduction
δ-OR [2]
  effect of sodium ions on binding to the receptor: minimally affected
[3]
  β-arrestin signaling: low to moderate reduction

## O=C1/C(=C/c2ccccc2)C[C@@]2(O)[C@H]3Cc4ccc(O)c5c4[C@@]2(CCN3CC2CC2)[C@H]1O5 [BNTX]
WT δ-OR
  agonist activity at the β-arrestin pathway: no apparent agonist activity

## Oc1ccc2c3c1O[C@H]1c4oc5ccccc5c4C[C@@]4(O)[C@@H](C2)N(CC2CC2)CC[C@]314 [naltriben]
WT δ-OR
  agonist activity at the β-arrestin pathway: no apparent agonist activity

## Oc1ccc2c3c1O[C@H]1c4[nH]c5ccccc5c4C[C@@]4(O)[C@@H](C2)N(CC2CC2)CC[C@]314 [naltrindole]
WT δ-OR
  agonist activity at the β-arrestin pathway: no apparent agonist activity
δ-OR [4]
  activity at Gαi signaling: weak partial agonist activity

## [Na+] [sodium]
δ-OR N131A (HEK293)
  Hill Coefficient: NAE
  Na+ KB: NAE
  Na+ pKB ± SEM: NAE
  pα ± SEM: NAE
  α: NAE
δ-OR D95N (HEK293)
  Hill Coefficient: NAE
  Na+ KB: NAE
  Na+ pKB ± SEM: NAE
  pα ± SEM: NAE
  α: NAE
δ-OR D95A (HEK293)
  Hill Coefficient: NAE
  Na+ KB: NAE
  Na+ pKB ± SEM: NAE
  pα ± SEM: NAE
  α: NAE
δ-OR WT (HEK293)
  Hill Coefficient: 0.56 ± 0.16
δ-OR WT (HEK293); allosteric model, orthosteric ligand DADLE
  Na+ pKB ± SEM: 1.88 ± 0.10
δ-OR WT (HEK293); [5]
  pα ± SEM: 1.93 ± 0.34
  α: 0.012
δ-OR WT (HEK293); read-out: Na+ KB, allosteric model, orthosteric ligand DADLE
  Kb: 13.3 mM

## DADLE
[1]; Asp95Ala, Asn310Ala and Asn314Ala mutants
  G protein agonist efficacy: low to moderate reduction
